Assays:
Assay type in all cases: toxicity, cell-based
[1] = test system: HEK-293T; test: Incucyte cell viability with HEK293T; details: human, 10 µM, compound concentration 10 uM
[2] = test system: Fibroblast; test: Incucyte cell viability with human fibroblast; details: 10 µM, compound concentration 10 uM
[3] = test system: U2OS; test: Incucyte cell viability with U2OS; details: human, 10 µM, compound concentration 10 uM
[4] = 0 h, replicate number 2, timepoint 0 hours
[5] = 6 h, replicate number 1, timepoint 6 hours
[6] = 6 h, replicate number 2, timepoint 6 hours
[7] = 12 h, replicate number 1, timepoint 12 hours
[8] = 12 h, replicate number 2, timepoint 12 hours
[9] = 18 h, replicate number 1, timepoint 18 hours
[10] = 24 h, replicate number 1, timepoint 24 hours
[11] = 0 h, replicate number 1, timepoint 0 hours
[12] = 18 h, replicate number 2, timepoint 18 hours
[13] = 24 h, replicate number 2, timepoint 24 hours
Also: filed as whole numbers so only -1 and 0 and 1 occur.

CNCCC(Oc1ccc(C(F)(F)F)cc1)c1ccccc1.Cl (stereo unspecified) [FLUOXETINE HYDROCHLORIDE] was tested, and the “Growth Rate” value [1, 4] was 0, the “Growth Rate” value [1, 5] was 0 and the “Growth Rate” value [1, 6] was 1. For the same compound, the “Growth Rate” value [1, 7] was 0, the “Growth Rate” value [1, 8] was 1 and the “Growth Rate” value [1, 9] was 0. The “Growth Rate” value [1, 10] was 0, the “Growth Rate” value [2, 11] was 0 and the “Growth Rate” value [2, 5] was 1. For the same compound, the “Growth Rate” value [2, 6] was 0, the “Growth Rate” value [2, 7] was 0 and the “Growth Rate” value [2, 9] was 1. The “Growth Rate” value [2, 12] was 0, the “Growth Rate” value [2, 10] was 1 and the “Growth Rate” value [2, 13] was 0. For the same compound, the “Growth Rate” value [3, 6] was 1, the “Growth Rate” value [3, 8] was 1 and the “Growth Rate” value [3, 9] was 1. For the same compound, the “Growth Rate” value [3, 10] was 1.
In the case of C[C@@]1(Cc2ccc(C#N)cc2)C(=O)N(c2cc(Cl)cc(Cl)c2)c2ncc(C(=O)NC3(c4nc(C5CCC5)no4)CC3)n21 [BI 9446], the “Growth Rate” value [1, 11] is reported as 0, the “Growth Rate” value [1, 5] is reported as 0 and the “Growth Rate” value [1, 7] is reported as 0. The “Growth Rate” value [1, 9] was 0, the “Growth Rate” value [1, 10] was 0 and the “Growth Rate” value [2, 11] was 0. The “Growth Rate” value [2, 5] was 0, the “Growth Rate” value [2, 7] was 0 and the “Growth Rate” value [2, 9] was 0. For the same compound, the “Growth Rate” value [2, 10] was 0, the “Growth Rate” value [3, 11] was 0 and the “Growth Rate” value [3, 6] was 0. For the same compound, the “Growth Rate” value [3, 7] was 1, the “Growth Rate” value [3, 8] was 0 and the “Growth Rate” value [3, 9] was 1. For the same compound, the “Growth Rate” value [3, 12] was 0, the “Growth Rate” value [3, 10] was 1 and the “Growth Rate” value [3, 13] was 0.
In the case of O=S(=O)(c1ccccc1)N(CC(F)(F)F)c1ccc(C(O)(C(F)(F)F)C(F)(F)F)cc1 [T091317], the “Growth Rate” value [1, 11] is reported as 0, the “Growth Rate” value [1, 5] is reported as 0 and the “Growth Rate” value [1, 6] is reported as 1. The “Growth Rate” value [1, 7] was 0, the “Growth Rate” value [1, 9] was 0 and the “Growth Rate” value [1, 10] was 0. For the same compound, the “Growth Rate” value [2, 11] was 0, the “Growth Rate” value [2, 5] was 0 and the “Growth Rate” value [2, 7] was 0. For the same compound, the “Growth Rate” value [2, 9] was 0, the “Growth Rate” value [2, 10] was 0 and the “Growth Rate” value [3, 11] was 0. For the same compound, the “Growth Rate” value [3, 7] was 1, the “Growth Rate” value [3, 9] was 1 and the “Growth Rate” value [3, 10] was 1.
In the case of Cc1nc(C(=O)N2CCC[C@H]2Cc2nnc(-c3ccccc3)o2)c(-c2ccccc2F)s1, the “Growth Rate” value [1, 4] is reported as 0, the “Growth Rate” value [1, 5] is reported as 0 and the “Growth Rate” value [1, 7] is reported as 0. For the same compound, the “Growth Rate” value [1, 9] was 0, the “Growth Rate” value [1, 10] was 0 and the “Growth Rate” value [2, 11] was 1. For the same compound, the “Growth Rate” value [2, 5] was 0, the “Growth Rate” value [2, 7] was 0 and the “Growth Rate” value [2, 9] was 1. The “Growth Rate” value [2, 10] was 0, the “Growth Rate” value [2, 13] was 1 and the “Growth Rate” value [3, 5] was 0. For the same compound, the “Growth Rate” value [3, 7] was 0, the “Growth Rate” value [3, 9] was 1 and the “Growth Rate” value [3, 10] was 0. For the same compound, the “Growth Rate” value [3, 13] was 1.
For O=C(O)C[C@H]1CCc2c1[nH]c1ccc(OCc3ccc(C4CCCC4)c(C(F)(F)F)c3)cc21 [ETRASIMOD], the “Growth Rate” value [1, 11] was 0, the “Growth Rate” value [1, 5] was 1 and the “Growth Rate” value [1, 7] was 0. The “Growth Rate” value [1, 8] was 1, the “Growth Rate” value [1, 9] was 0 and the “Growth Rate” value [1, 12] was 1. For the same compound, the “Growth Rate” value [1, 10] was 0, the “Growth Rate” value [2, 11] was 0 and the “Growth Rate” value [2, 4] was 1. The “Growth Rate” value [2, 5] was 1, the “Growth Rate” value [2, 6] was 0 and the “Growth Rate” value [2, 7] was 1. The “Growth Rate” value [2, 9] was 1, the “Growth Rate” value [2, 10] was 0 and the “Growth Rate” value [2, 13] was 1. For the same compound, the “Growth Rate” value [3, 11] was 0, the “Growth Rate” value [3, 4] was 1 and the “Growth Rate” value [3, 6] was 0. The “Growth Rate” value [3, 7] was 0, the “Growth Rate” value [3, 8] was 1 and the “Growth Rate” value [3, 9] was 1. The “Growth Rate” value [3, 10] was 1.
For O=C(O)[C@@H]1[C@@H](Cn2nnc3ccccc3c2=O)CC[C@H]1C(=O)c1ccc(OCCC2CCOCC2)cc1 [BAY-694], the “Growth Rate” value [1, 11] was 0, the “Growth Rate” value [1, 4] was 1 and the “Growth Rate” value [1, 5] was 0. For the same compound, the “Growth Rate” value [1, 6] was 1, the “Growth Rate” value [1, 8] was 0 and the “Growth Rate” value [1, 9] was 1. For the same compound, the “Growth Rate” value [1, 10] was 1, the “Growth Rate” value [2, 11] was 0 and the “Growth Rate” value [2, 4] was 1. The “Growth Rate” value [2, 5] was 0, the “Growth Rate” value [2, 7] was 1 and the “Growth Rate” value [2, 8] was 0. For the same compound, the “Growth Rate” value [2, 9] was 1, the “Growth Rate” value [2, 12] was 0 and the “Growth Rate” value [2, 10] was 0. The “Growth Rate” value [2, 13] was 1, the “Growth Rate” value [3, 11] was 0 and the “Growth Rate” value [3, 5] was 0. For the same compound, the “Growth Rate” value [3, 7] was 1, the “Growth Rate” value [3, 9] was 0 and the “Growth Rate” value [3, 10] was 1. The “Growth Rate” value [3, 13] was 0.
For O=C(NCCCN1CCOC1=O)c1cnc(NCc2cc(Br)ccc2Br)nc1NC1CCCC1, the “Growth Rate” value [1, 11] was 0, the “Growth Rate” value [1, 5] was 1 and the “Growth Rate” value [1, 8] was 1. For the same compound, the “Growth Rate” value [1, 9] was 1, the “Growth Rate” value [1, 10] was 1 and the “Growth Rate” value [1, 13] was 0. The “Growth Rate” value [2, 5] was 0, the “Growth Rate” value [2, 7] was 0 and the “Growth Rate” value [2, 9] was 0. For the same compound, the “Growth Rate” value [2, 10] was 0, the “Growth Rate” value [3, 11] was 0 and the “Growth Rate” value [3, 5] was 1. The “Growth Rate” value [3, 7] was 1, the “Growth Rate” value [3, 9] was 0 and the “Growth Rate” value [3, 10] was 1.
For CC(C)S(=O)(=O)c1ccc2nccc(Nc3ccc4scnc4c3)c2c1, the “Growth Rate” value [1, 5] was 0, the “Growth Rate” value [1, 7] was 0 and the “Growth Rate” value [1, 9] was 0. The “Growth Rate” value [1, 10] was 0, the “Growth Rate” value [2, 4] was 0 and the “Growth Rate” value [2, 5] was 0. For the same compound, the “Growth Rate” value [2, 7] was 0, the “Growth Rate” value [2, 9] was 0 and the “Growth Rate” value [2, 10] was 0. For the same compound, the “Growth Rate” value [3, 11] was 1, the “Growth Rate” value [3, 4] was 0 and the “Growth Rate” value [3, 5] was 0. The “Growth Rate” value [3, 7] was 1, the “Growth Rate” value [3, 9] was 0 and the “Growth Rate” value [3, 12] was 1. For the same compound, the “Growth Rate” value [3, 10] was 1.
With Cc1nc(C2CCN(C(=O)c3ccc(OC(F)(F)F)cc3N)CC2)c2ncc(N3CCN(C)CC3)cc2n1 [BAY-693] the “Growth Rate” value [1, 11] was 0, the “Growth Rate” value [1, 4] was 1 and the “Growth Rate” value [1, 13] was 1. The “Growth Rate” value [2, 11] was 1, the “Growth Rate” value [2, 4] was 0 and the “Growth Rate” value [2, 5] was 1. For the same compound, the “Growth Rate” value [2, 7] was 1, the “Growth Rate” value [2, 9] was 1 and the “Growth Rate” value [2, 10] was 1. The “Growth Rate” value [3, 11] was 0, the “Growth Rate” value [3, 5] was 0 and the “Growth Rate” value [3, 6] was 1. The “Growth Rate” value [3, 7] was 0, the “Growth Rate” value [3, 8] was 1 and the “Growth Rate” value [3, 9] was 0. The “Growth Rate” value [3, 12] was 1, the “Growth Rate” value [3, 10] was 0 and the “Growth Rate” value [3, 13] was 1.

From ChEMBL document CHEMBL4689842, “EUbOPEN Chemogenomics Library wave 1” (2021)
